Test [1] deals with T1, androgen receptor (Homo sapiens, UniProt P10275).
T1 sequence (P10275 1-920): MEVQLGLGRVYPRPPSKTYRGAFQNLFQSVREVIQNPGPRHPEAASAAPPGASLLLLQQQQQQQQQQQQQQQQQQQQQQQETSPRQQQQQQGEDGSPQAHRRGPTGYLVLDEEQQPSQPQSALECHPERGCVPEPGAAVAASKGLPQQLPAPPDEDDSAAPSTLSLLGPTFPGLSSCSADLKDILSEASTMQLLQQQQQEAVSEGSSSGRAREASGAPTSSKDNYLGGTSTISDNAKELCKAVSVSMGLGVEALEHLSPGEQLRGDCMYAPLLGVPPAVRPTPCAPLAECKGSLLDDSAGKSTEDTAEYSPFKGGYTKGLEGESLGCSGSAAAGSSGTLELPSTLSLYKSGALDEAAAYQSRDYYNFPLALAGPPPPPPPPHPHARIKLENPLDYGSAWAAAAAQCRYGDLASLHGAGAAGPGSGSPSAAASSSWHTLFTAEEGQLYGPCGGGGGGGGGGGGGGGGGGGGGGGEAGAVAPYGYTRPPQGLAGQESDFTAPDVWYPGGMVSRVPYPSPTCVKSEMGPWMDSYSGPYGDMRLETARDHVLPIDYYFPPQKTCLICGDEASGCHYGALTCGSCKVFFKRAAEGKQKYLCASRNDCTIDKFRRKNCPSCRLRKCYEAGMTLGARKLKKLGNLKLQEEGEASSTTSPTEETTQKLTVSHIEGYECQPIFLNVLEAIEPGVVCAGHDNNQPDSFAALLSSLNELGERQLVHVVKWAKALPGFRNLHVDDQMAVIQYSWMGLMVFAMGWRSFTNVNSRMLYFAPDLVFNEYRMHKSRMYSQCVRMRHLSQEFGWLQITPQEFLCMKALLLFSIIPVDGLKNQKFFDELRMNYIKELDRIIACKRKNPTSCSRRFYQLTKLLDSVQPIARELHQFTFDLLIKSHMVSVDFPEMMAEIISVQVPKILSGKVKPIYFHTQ
Description: human AR agonist assay (Indigo Biosciences). In kind it is cell-based. Set-up: purchased Indigo Biosciences. The conditions noted are these: for HillSlope: agonist mode, Table 1 / FIG. 1. The source says: (§1) The activity of a compound can be determined using various known methods. For example, AR assays can be used. Such AR assays include binding assays using, for example, cells transfected with the human androgen receptor. Several cell based model systems that allow sensitive detection and monitoring of steroids or other compounds with AR bioactivity are known. Most cell based AR reporter models use transgenic gene constructs that include an androgen response element (ARE) that controls reporter gene (e.g., lucifersrase) expression. For example, a human AR Reporter Assay System is commercially available from Indigo Biosciecnes. The principle application of such an assay product is to quantify functional activities, either agonist or antagonist, that a compound may exert against the human androgen receptor. […] In addition, the anti-proliferative activity of a compound can be determined using various known methods, including in vitro and in vivo antiproliferative assays using cancer cell lines such as a prostate cancer cell line.
(§2) The activity of certain compounds were tested in a human AR agonist assay and a human AR antagonist assay (Indigo Biosciences).

In test [2] the target is T1, androgen receptor. Description: AR binding (Ki, Table A).
Description: as §1

Test [3] deals with T1, androgen receptor. Description: human AR antagonist assay (Indigo Biosciences). The test is classed as cell-based. On the set-up: purchased Indigo Biosciences.
Description: as §1, §2

The mark [4] stands for this setting: antagonist mode, Table 2 / FIG. 2.
[5] abbreviates: antagonist mode, Table 3 / FIG. 3.

“And” between values parts separate entries of the source, which are not always exact repeats. Identical values can stand only once.

`CC(=O)O[C@@H]1CC2=C3CCC4=CC(=O)CC[C@@H]4[C@@]3(C)CC[C@]2(C)C1` [Compound 101, (9R,10S,13R,16S)-9,13-dimethyl-3-oxo-2,3,6,7,9,10,11,12,13,15,16,17-dodecahydro-1H-cyclopenta[a]phenanthren-16-yl acetate] had an EC50 at androgen receptor [1] of 10000 nM. The figures for the HillSlope on androgen receptor [1] and at androgen receptor [3] (setting [4]) were 1.063 and 2.100, respectively. Further, the Ki at androgen receptor [2] stood at 7350 nM. Further, the IC50 against androgen receptor [3] (Table A) and at androgen receptor [3] (setting [4]) was 413 nM in each case.
On androgen receptor [1], `C[C@]12CC[C@@]3(C)C(=C1C[C@@H](O)C2)CCC1=CC(=O)CC[C@@H]13` [Compound 102, (9R,10S,13R,16S)-16-hydroxy-9,13-dimethyl-1,2,6,7,9,10,11,12,13,15,16,17-dodecahydro-3H-cyclopenta[a]phenanthren-3-one] displayed an EC50 of 23000 nM and a HillSlope of 1.300. The affinity on androgen receptor [2], expressed as Ki, was 919 nM. The IC50 against androgen receptor [3] (Table A) amounted to 654 nM. At androgen receptor [3] (setting [4]), this compound had a HillSlope of 1.728 and a concentration for half-maximal inhibition (IC50) of 654 nM.
On to `C[C@]12CC[C@@]3(C)C(=C1C[C@H](O)C2)CCC1=CC(=O)CC[C@@H]13` [Compound 103, (9R,10S,13R,16R)-16-hydroxy-9,13-dimethyl-1,2,6,7,9,10,11,12,13,15,16,17-dodecahydro-3H-cyclopenta[a]phenanthren-3-one], for which the HillSlope entry at androgen receptor [1] is “≈1.247”; on androgen receptor [3] (setting [4]) it was 1.906. This compound also yielded a Ki at androgen receptor [2] of 3460 nM. In addition, the IC50 against androgen receptor [3] (Table A) and at androgen receptor [3] (setting [4]) was 1240 nM in each case.
In the case of `C[C@@]12CC[C@]3(C)C(=C1C[C@H](O)C2)CCC1=CC(=O)CC[C@H]13` [Compound 104], the IC50 at androgen receptor [3] (Table A) was determined as 4300 nM.
For `C[C@@]12CC[C@]3(C)C(=C1C[C@@H](O)C2)CCC1=CC(=O)CC[C@H]13` [Compound 105], it took 1500 nM to reach half-maximal inhibition on androgen receptor [3] (Table A) (IC50).
At androgen receptor [3] (Table A), `C[C@]12CC[C@@]3(C)C(=C1C[C@@H](O)C2)CCC1=C[C@@H](O)CC[C@@H]13` [Compound 107] returned an IC50 of 4800 nM.
As for `CC(C)CCC[C@]12CC[C@@]3(C)C(=C1C[C@@H](O)C2)CCC1=CC(=O)CC[C@@H]13` [Compound 108], the HillSlope on androgen receptor [3] (setting [5]) stood at 1.225.
The same measure, in the same setting: then `CC(C)CCC[C@]12CC[C@@]3(C)C(=C1C[C@@H](O)C2)CCC1=CC(=O)CC[C@@H]13` [Compound 110], with 0.6338.
Turning to `CC(C)(O)C(=O)Nc1ccc([N+](=O)[O-])c(C(F)(F)F)c1` [hydroxyflutamide, reference compound], the HillSlope on androgen receptor [3] is 1.305 and 1.653.

As a reminder, the EC50 is the midpoint of the concentration-response curve. In general, Ki refers to a dissociation constant, usually derived from enzyme kinetics or from competition with a known ligand. A low value points to tighter binding. For orientation: IC50 means the concentration at which inhibition is half-maximal. A lower IC50 goes with inhibition by little substance.

These data come from patent publication US20230416297A1, “ANDROGEN RECEPTOR MODULATORS” (TRUSTEES OF DARTMOUTH COLLEGE, priority 2020, published 2023).
